# Legend:
# [1] = tested on: FaDu tumors; test: BIWI 1 combination therapy with paclitaxel in the FaDu xenograft model; format: in vivo, mouse
# Method: In vivo anti-tumor efficacy of BIWI 1 was tested in three nude mouse xenograft models applying antigen-positive human tumors: A431 (ATCC # CRL 1555; epidermoid carcinoma of the vulva), FaDu (ATCC # HTB 43; squamous cell carcinoma of the pharynx), and MDA-MB 453 (ATCC # HTB-131; breast carcinoma). The cells were received from ATCC and cultured in RPMI1640 medium containing 10% fetal calf serum and supplements. 1×10^6 tumors cells were transplanted subcutaneously into the right flank of 6 week old female NMRI-nu/nu mice. Tumor growth was monitored by measuring tumor size. A tumor response was rated as complete response when the tumor completely disappeared at any time after start of treatment. The response was rated as partial response when the tumor volume decreased after treatment but thereafter started regrowing. The tolerability of the treatment was monitored by measuring mouse weight during the observation period.
# Mice were randomised into the following treatment groups (treatment/initial mean tumor volume/tumor volume range/number of mice): • Group 1: Control (PBS)/197 mm^3/65-402 mm^3/8 mice • Group 2: Paclitaxel/182 mm^3 /65%-302 mm^3/8 mice • Group 3: BIWI 1/208 mm^3 /65-382 mm^3/8 mice • Group 4: BIWI 1+paclitaxel/159 mm^3 /79-335 mm^3 /7 mice
# Treatment consisted either of five i.v. injections of BIWI 1 (7 mg/kg corresponding to 100 μg/kg DM1) at day 1, 3, 5, 8, 10, or of six i.p. injections of paclitaxel (10 mg/kg) at day 2, 4, 6, 9, 11, 13, respectively, or a combination thereof. Control animals were treated with PBS.
# One tumor completely dissappeared during treatment and the animal remained tumor free until the end of the observation period.
# [2] = tested on: antigen-positive cell line FaDu; test: In vitro cytotoxicity, MTS/PMS cell proliferation assay, FaDu; format: cell-based, human; details: FaDu cells, 4 days exposure
# Method: For determination of viable cells the Cell Titer 96® AQueous non-radioactive cell proliferation assay (Promega) was used. Five thousand cells per well were seeded into 96-well plates in 90 μl medium without phenole red. Cells were allowed to settle down for 1 to 3 h and then serial dilutions of the immunoconjugate in 10 μl PBS were added. Cells without immunoconjugate served as negative control. Cells were incubated for 4 days at 37° C. in a humified 5% CO2 atmosphere and then 20 μl MTS/PMS were added according to the manufacturer's recommendation. After additional 1 to 4 h incubation at 37° C. the absorbance at 490 nm was recorded using an ELISA plate reader. For each cell line triplicates were analyzed. The percentage of the surviving cell fraction and the IC50 value were calculated using the GraphPad Prism® (Version 3.0) software.
# The in vitro cytotoxicity of BIWI 1 was evaluated using the antigen-positive cell lines A431 and FaDu, and the antigen-negative cell line […]. Cells were exposed to different concentrations of BIWI 1 for 4 days, then stained with MTS/PMS and assayed on an ELISA plate reader. The surviving fractions of cells were then calculated using the GraphPad Prism® software package.
# [3] = tested on: FaDuDD tumors; test: BIWI 1 combination with docetaxel in nude mice xenografted with FaDuDD tumors; format: in vivo, mouse
# Method: The antibody solution was injected into the tail vein with an injection volume of 200 μl for a 25 g mouse. In the control groups without BIWI 1 treatment animals were injected i.v. with PBS. […] The solution was injected into the tail vein with an injection volume of 200 μl for a 25 g mouse. […] The solution was injected into the tail vein with an injection volume of 200 μl for a 25 g mouse.
# Tumor sizes and body weights were recorded 2-3 times per week. Tumor sizes were measured with a calliper (length and width) and the volume was calculated according to the following formula: volume (length)×(width)^2×([…]). The tolerability of the treatment was monitored by measuring mouse weight during the whole observation period. […] For calculation of the mean tumor volumes per group, the last values of tumor size for individual animals were carried forward in case that these animals had to be sacrificed due to large tumor burden before the whole group was terminated. In addition to the absolute tumor volume in mm^3, the relative tumor volumes (RTV) were calculated as follows:
# RTV=(tumor volume at day x)/(tumor volume at start of treatment)×100 For the evaluation of treatment efficacy the following parameters were calculated: • T/C (%)=(mean RTV of treated group)/(mean RTV of control group)×100 • T4T (tumor quadrupling time)=time until the mean RTV reaches 400% • GDF4 (growth delay factor)=T4T treated/T4T control.
# In addition, for some experiments, the mean time for tumors to reach 8 times (T8T) their initial sizes were also calculated. The growth delay factor (GDF8) was then calculated accordingly. Percentages of mean relative tumor volumes of treated versus control groups (T/C) were calculated on the days indicated. For statistical evaluation of combination therapies exact Wilcoxon tests were used. Tolerability was assessed by monitoring body weight changes.
# To assess the efficacy of BIWI 1 in combination with the taxane docetaxel (Taxotere), non-curative doses of both drugs were tested as single agents or in combination in nude mice xenografted with FADuDD tumors. In pilot experiments a dose of 3 mg/kg docetaxel (q7dx4) was determined to be non-curative in this model. BIWI 1 was used at the non-curative dose of 200 μg/kg DM 1 and at a somewhat higher dose (300 μg/kg DM1).
# The effect was somewhat more pronounced in the two BIWI 1 monotherapy treatment groups with T/C 41-30% and GDF4: 2.8-4.4. Complete tumor regression could be observed in 1/8 cases with the higher BIWI 1 dose. […] Treatment was well tolerated in all groups, except for a slight unexplained weight loss (approx. −5%) in the docetaxel monotherapy group.
# [4] = BIWI 1 7 mg/kg i.v. x5, paclitaxel 10 mg/kg i.p. x6, or both
# [5] = BIWI 1 200 μg/kg DM1 i.v. q7dx4
# [6] = BIWI 1 300 μg/kg DM1 i.v. q7dx4
substance,measurement,setting,value
BIWI 1,Initial Tumor Doubling Time,"[1]; BIWI 1 7 mg/kg i.v. day 1,3,5,8,10, paclitaxel 10 mg/kg i.p. day 2,4,6,9,11,13, or both",7 days
same,Complete Regression,[1]; [4],0/8
same,Growth Delay Factor,[1]; [4],0.75
same,partial response,[1]; BIWI 1 monotherapy 7 mg/kg i.v. x5,3/8
same,IC50,[2],~0.024 µM
same,GDF4,[3]; [5],2.8
same,T4T,[3]; [5],20.1 days
same,T/C (d 16),[3]; [5],41%
same,complete tumor regression,[3]; BIWI 1 300 μg/kg DM1 (higher dose) q7dx4,1/8
same,GDF4,[3]; [6],4.4
same,T4T,[3]; [6],31.1 days
same,T/C (d 16),[3]; [6],30%

# From US20050244413A1, “Compositions and methods for treating cancer using cytotoxic CD44 antibody immunoconjugates and chemotherapeutic agents” (priority 2002, published 2005)
